For 63 molecules, EC50 results are on record in patent US12268694B2, “Combination pharmaceutical agents as RSV inhibitors” (Enanta Pharmaceuticals, Inc., priority 2017, dated 2025).

Bounds are passed on as bounds.

For orientation: EC50 means the concentration at which the effect is half-maximal.

In one assay the test system is genotype A, "Long" strain RSV. Briefly: RSV-A assay: CPE protection in HEp-2 cells, ATPlite readout. It is filed as cell-based, human respiratory syncytial virus. The settings on record: HEp-2 cells, RSV-A Long strain, ATPlite readout; read-out: Human RSV-A (“Long” strain) EC50. Put shortly: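 HEp-2 cells (8,000/well) with 2-fold compound dilutions in duplicate, infected with Long-strain RSV at MOI 0.1 and incubated 5 days. Cell ATP measured by ATPlite luminescence to give EC50; uninfected parallel plate gives CC50.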
For orientation: In ATP-based viability assays light output follows the ATP content of the culture.
On to `O=C1Nc2ccccc2C(c2ccccc2)=N[C@@H]1Nc1ncc(-c2ncc(C(F)(F)F)cc2N2CCOCC2)o1` [Example 442], for which the half-maximal effective concentration (EC50) was below 400 nM.
Same read-out and setting: then `O=C1Nc2ccccc2C(c2ccccc2)=N[C@@H]1Nc1nnc(-c2nc(C(F)(F)F)sc2N2CCO[C@@H]3C[C@@H]32)o1` [Example 484], with below 400 nM.
Same read-out and setting: the same measure for `O=C1Nc2ccccc2C(c2ccccc2)=NC1Nc1nnc(-c2c(F)cc(F)cc2N2CCOCC2)o1` (stereo not drawn) [Example 171]: above 800 nM; for `O=C1Nc2c(F)cccc2C(c2ccccc2)=N[C@@H]1Nc1nnc(-c2cccnc2N2CCOCC2)o1` (single isomer, unassigned) [Example 357]: above 800 nM; for `COC[C@@H]1C[C@H]1c1sc(C(F)(F)F)nc1-c1nnc(N[C@H]2N=C(c3ccccc3)c3ccccc3NC2=O)o1` [Example 394]: above 800 nM.
The same measure, in the same setting: the same measure for `O=C1Nc2c(F)cccc2C(c2ccccc2)=N[C@@H]1Nc1nnc(-c2ncc(C(F)(F)F)cc2N2CCOCC2)o1` [Example 360]: below 400 nM; for `O=C1Nc2ccccc2C(c2ccccc2)=N[C@@H]1Nc1nnc(-c2cn(CC3CC3)nc2N2CCOCC2)o1` [Example 447]: 400 to 800 nM.
Regarding `O=C1Nc2ccccc2C(c2ccccc2)=N[C@H]1Nc1nnc(-c2nc(C(F)(F)F)sc2N2CCO[C@H]3C[C@H]32)o1` [Example 487], the concentration for a half-maximal effect (EC50) is above 800 nM.
As to `O=C1Nc2c(F)cccc2C(c2ccccc2)=N[C@@H]1Nc1nnc(-c2ncc(C(F)(F)F)cc2N2CCOCC2)o1` (single isomer, unassigned) [Example 359], the EC50 is below 400 nM.

Staying with this assay, now noted: human respiratory syncytial virus, HEp-2, read-out: Human RSV-A (“Long” strain) EC50.
In the case of `O=C1Nc2ccccc2C(c2ccccc2)=NC1Nc1nnc(-c2ccc(N3CCCC3)cc2)o1` (stereo not drawn) [Example 184], the concentration for a half-maximal effect (EC50) was in the range of 400 to 800 nM.
With `O=C1Nc2ccccc2C(c2ccccc2)=NC1Nc1nnc([C@@H]2CCCO2)o1` (stereo partly drawn) [Example 207], the concentration for a half-maximal effect (EC50) is above 800 nM.
The same measure, in the same setting: the same measure for `O=C1Nc2ccccc2C(c2ccccc2)=N[C@H]1Nc1nnc(-c2ccccc2N2CCOCC2)o1` [Example 125b]: above 800 nM.
The same measure, in the same setting: the same measure for `CS(=O)(=O)Cc1nnc(NC2N=C(c3ccccc3)c3ccccc3NC2=O)o1` (stereo not drawn) [Example 194]: above 800 nM.
For the molecule `O=C1Nc2ccccc2C(c2ccccc2)=NC1Nc1nnc(-c2ncc(C(F)(F)F)cc2CCO)o1` (stereo not drawn) [Example 450], the EC50 is above 800 nM.
As to `O=C1Nc2ccccc2C(c2ccccc2)=N[C@@H]1Nc1nnc(-c2cn(-c3ccccn3)nc2N2CCOCC2)o1` [Example 431], the concentration for a half-maximal effect (EC50) was below 400 nM.
On the same count and under the same terms, then `O=C1Nc2ccccc2C(c2ccccc2)=N[C@@H]1Nc1nnc(-c2cc(C3CC3)sc2N2CCOCC2)o1` [Example 384], with below 400 nM; and `O=C1Nc2ccccc2C(c2ccccc2)=NC1Nc1nnc(-c2ccncc2)[nH]1` (stereo not drawn) [Example 366], with above 800 nM.
The same measure, in the same setting: the same measure for `O=C1Nc2ccccc2C(c2ccccc2)=N[C@@H]1Nc1nnc(-c2ncc(C(F)(F)F)cc2-c2ccncc2)o1` [Example 282]: above 800 nM; for `C[C@@H]1CN(c2ccc(-c3nnc(N[C@H]4N=C(c5ccccc5)c5ccccc5NC4=O)o3)c(Cl)c2)C[C@H](C)O1` [Example 243]: above 800 nM.
On the same count and under the same terms, then `CC1(Nc2cc(C(F)(F)F)cnc2-c2nnc(N[C@H]3N=C(c4ccccc4)c4ccccc4NC3=O)o2)CCOC1` (stereo partly drawn) [Example 424], with above 800 nM; and `O=C1Nc2ccccc2C(c2ccccc2)=N[C@@H]1Nc1nnc(-c2ncc(N3CCCC3)cc2N2CCOCC2)o1` [Example 314], with below 400 nM; and `N#Cc1ccc2nccc(-c3nnc(N[C@H]4N=C(c5ccccc5)c5ccccc5NC4=O)o3)c2c1` [Example 435], with above 800 nM.
On to `COc1ccn2ncc(-c3nnc(N[C@H]4N=C(c5ccccc5)c5ccccc5NC4=O)o3)c2c1` [Example 410], for which the EC50 is above 800 nM.
On the same count and under the same terms, the same measure for `CCCc1nnc(NC2N=C(c3ccccc3)c3ccccc3NC2=O)o1` (stereo not drawn) [Example 190]: above 800 nM; for `COCCOc1ccc(-c2nnc(NC3N=C(c4ccccc4)c4ccccc4NC3=O)o2)cc1` (stereo not drawn) [Example 236]: above 800 nM; for `CCOC1(c2nc(-c3nnc(N[C@H]4N=C(c5ccccc5)c5ccccc5NC4=O)o3)c(N3CCOCC3)s2)CCC1` (stereo in doubt) [Example 458]: below 400 nM.
On the same count and under the same terms, then `COC[C@H]1CCCN1c1sc(C(F)(F)F)nc1-c1nnc(N[C@H]2N=C(c3ccccc3)c3ccccc3NC2=O)o1` [Example 456], with above 800 nM; and `COCCCc1sc(C)nc1-c1nnc(N[C@H]2N=C(c3ccccc3)c3ccccc3NC2=O)o1` [Example 479], with above 800 nM.
Still for that read-out and setting: the same measure for `CC1(c2nc(-c3nnc(N[C@H]4N=C(c5ccccc5)c5ccccc5NC4=O)o3)c(N3CCOCC3)s2)CCC1` [Example 478]: below 400 nM.
As for `O=C1Nc2ccccc2C(c2ccccc2)=N[C@@H]1Nc1nnc(-c2ncc(C(F)(F)F)cc2C2CC2)o1` [Example 293], the concentration giving a half-maximal response (EC50) is above 800 nM.
On the same count and under the same terms, then `O=C1Nc2ccccc2C(c2ccccc2)=N[C@H]1Nc1nnc(-c2ccc(N3CCOCC3)cc2F)o1` [Example 126b], with above 800 nM; and `CC(C)(O)c1nnc(NC2N=C(c3ccccc3)c3ccccc3NC2=O)o1` (stereo not drawn) [Example 213], with above 800 nM.
The same measure, in the same setting: the same measure for `O=C1Nc2ccccc2C(c2ccccc2)=N[C@@H]1Nc1nnc(-c2ccc(C3CC3)nc2N2CCOCC2)o1` [Example 154]: below 400 nM; for `CC1(Nc2nnc(-c3ccc(F)cc3)o2)N=C(c2ccccc2)c2ccccc2NC1=O` (stereo not drawn) [Example 230]: above 800 nM.
Same read-out and setting: then `Cc1nc(-c2nnc(N[C@H]3N=C(c4ccccc4)c4ccccc4NC3=O)o2)c(C2CCOCC2)s1` [Example 346, (S)-3-((5-(2-methyl-5-(tetrahydro-2H-pyran-4-yl)thiazol-4-yl)-1,3,4-oxadiazol-2-yl)amino)-5-phenyl-1,3-dihydro-2H-benzo[e][1,4]diazepin-2-one], with below 400 nM.
Turning to `O=C1Nc2ccccc2C(c2ccccc2)=NC1Nc1nnc(C2CCC2)o1` (stereo not drawn) [Example 196], the 50% effective concentration (EC50) was above 800 nM.
As to `O=C1Nc2ccccc2C(c2ccccc2)=N[C@@H]1Nc1nnc(-c2ccc(C(F)(F)F)cc2N2CCOCC2)o1` [Example 152], the 50% effective concentration (EC50) was below 400 nM.
On the same count and under the same terms, the same measure for `COCCNc1sc(C)nc1-c1nnc(N[C@H]2N=C(c3ccccc3)c3ccccc3NC2=O)o1` [Example 335]: below 400 nM.
Still for that read-out and setting: then `CC(C)c1nnc(NC2N=C(c3ccccc3)c3ccccc3NC2=O)o1` (stereo not drawn) [Example 188], with above 800 nM; and `Cc1nc(-c2nnc(NC3N=C(c4ccccc4)c4ccccc4NC3=O)o2)ccc1F` (stereo not drawn) [Example 110], with above 800 nM; and `CCc1nc(N2CCOCC2)c(-c2nnc(N[C@H]3N=C(c4ccccc4)c4ccccc4NC3=O)o2)cc1C#N` [Example 176], with below 400 nM.
Same read-out and setting: the same measure for `COc1ccc(-c2nnc(N[C@H]3N=C(c4ccccc4)c4ccccc4NC3=O)o2)c(N2CCOCC2)n1` [Example 295]: below 400 nM.
Regarding `O=C1Nc2ccccc2C(c2ccccc2)=NC1Nc1ncc(-c2ccc(Br)cc2)o1` (stereo not drawn) [Example 370], the EC50 is above 800 nM.
The same measure, in the same setting: the same measure for `Cc1noc(C)c1-c1cc(C#N)ccc1-c1nnc(N[C@H]2N=C(c3ccccc3)c3ccccc3NC2=O)o1` [Example 320]: above 800 nM; for `CCOC(=O)c1nnc(NC2N=C(c3ccccc3)c3ccccc3NC2=O)o1` (stereo not drawn) [Example 78]: above 800 nM.
On the same count and under the same terms, then `O=C1Nc2ccccc2C(c2ccccc2)=NC1Nc1nnc(C2(F)CC2)o1` (stereo not drawn) [Example 204], with above 800 nM; and `C[C@@H]1COCCN1c1cc(C#N)cnc1-c1nnc(N[C@H]2N=C(c3ccccc3)c3ccccc3NC2=O)o1` [Example 301], with below 400 nM; and `COCCn1ccc2cccc(-c3nnc(N[C@H]4N=C(c5ccccc5)c5ccccc5NC4=O)o3)c21` [Example 426], with above 800 nM.
On the same count and under the same terms, then `O=C1Nc2ccccc2C(c2ccccc2)=NC1Nc1nnc(-c2cccnc2N2C[C@H]3COC[C@H]3C2)o1` (stereo partly drawn) [Example 267], with above 800 nM.
As for `O=C1Nc2ccccc2C(c2ccccc2)=NC1Nc1nnc(-c2cc(F)cnc2N2CCOCC2)o1` (stereo not drawn) [Example 145], the EC50 is 400 to 800 nM.
Same read-out and setting: then `O=C1Nc2ccccc2C(c2ccccc2)=NC1Nc1nnc(-c2ccccc2C2CCOCC2)o1` (stereo not drawn) [Example 354], with above 800 nM; and `O=C1Nc2ccccc2C(c2ccccc2)=NC1Nc1nnc(-c2cccnc2N2CCC(O)CC2)o1` (stereo not drawn) [Example 255], with above 800 nM.
Still for that read-out and setting: the same measure for `O=C1Nc2ccccc2C(c2ccccc2)=NC1Nc1nnc(-c2ccc(N3CCOCC3)cc2Cl)o1` (stereo not drawn) [Example 122]: above 800 nM; for `O=C1Nc2ccccc2C(c2ccccc2)=NC1Nc1nnc(-c2cccnc2N2CCCCC2)o1` (stereo not drawn) [Example 241]: above 800 nM; for `O=C1Nc2ccccc2C(c2ccccc2)=N[C@@H]1Nc1nnc(-c2ncc(F)cc2N2CC3CCC(C2)O3)o1` [Example 299]: below 400 nM.
Still for that read-out and setting: then `CCn1cc(-c2nnc(N[C@H]3N=C(c4ccccc4)c4ccccc4NC3=O)o2)c(N2CCOCC2)n1` [Example 401], with below 400 nM; and `O=C1Nc2ccccc2C(c2ccccc2)=N[C@@H]1Nc1nnc(-c2cnc(-n3cccn3)nc2N2CCOCC2)o1` [Example 172], with above 800 nM.
Regarding `COCCNc1sccc1-c1nnc(N[C@H]2N=C(c3ccccc3)c3ccccc3NC2=O)o1` [Example 472], the EC50 is above 800 nM.
On the same count and under the same terms, then `CN[C@H](c1ccccc1)c1nnc(NC2N=C(c3ccccc3)c3ccccc3NC2=O)o1` (stereo partly drawn) [Example 238], with above 800 nM; and `O=C1Nc2ccccc2C(c2ccccc2)=NC1Nc1nnc(-c2ccc(-n3cncn3)c(F)c2)o1` (stereo not drawn) [Example 216], with 400 to 800 nM; and `CC(C)(O)CNc1cc(C(F)(F)F)cnc1-c1nnc(N[C@H]2N=C(c3ccccc3)c3ccccc3NC2=O)o1` [Example 297], with below 400 nM.
The same measure, in the same setting: then `COc1cnc(-c2nnc(NC3N=C(c4ccccc4)c4ccccc4NC3=O)o2)c(F)c1` (stereo not drawn) [Example 185], with above 800 nM; and `COCCn1c(-c2nnc(N[C@H]3N=C(c4ccccc4)c4ccccc4NC3=O)o2)nc2ccccc21` [Example 298], with above 800 nM.
